# What was measured:
# [1] = Metabolic stability in mouse liver microsomes; format: in vitro ADME
# 3A4 = 3A4 (Homo sapiens (Human), UniProt P08684); experiment: Direct inhibition test (DI test), CYP 3A4; format: in vitro ADME; conditions: human liver microsomes 0.2 mg/ml, 20 min; for Direct inhibition rate (%) 3A4, second value: second of two values a/b (two 3A4 probes midazolam, testosterone; assignment not given)
# Description: The system which was 100 μl of human liver microsomes (final concentration: 0.2 mg/ml) was used for direct inhibition incubation. The system contained NADPH (final concentration: 1 mM), 10 μl compound, positive inhibitor cocktail (ketoconazole, 10 μl, quinidine 10 μl, sulfaphenazole 100 μl, naphthoflavone 10 μl, tranylcypromine 1000 μl), negative control 10 μl DMSO and mixed probe substrate (midazolam 10 μl, testosterone 100 μl, dextromethorphan 10 μl, diclofenac 20 μl, phenacetin 100 μl, mephenytoin 100 μl). The reaction was stopped after the system was incubated for 20 min. The relative activity of the enzyme was calculated by measuring the relative amount of production of the metabolite.
# [2] = Metabolic stability in human liver microsomes; format: in vitro ADME; conditions: human liver microsomes 0.5 mg/ml, 1 μM compound, NADPH
# Description: The system which was 150 μl of human liver microsomes (final concentration: 0.5 mg/ml) was used for metabolic stability incubation. The system contained reduced coenzyme II (NADPH) (final concentration: 1 mM) and 1 μM compound, positive control or negative control. The reaction was terminated with acetonitrile containing (imiprozine, batch number: 3221; tinidazole, given) at 0 min, 5 min, 10 min, and 30 min, respectively. The mixture was vortexed for 10 min, centrifuged at 15000 rpm for 10 min, and 50 μl of the supernatant was injected into a 96-well plate. The metabolic stability of the compound was calculated by measuring the relative reduction in the original medicament.
# HLM Clint (μl/min/mg) refers to the clearance rate of compounds in human liver microsomes having a unit of μl/min/mg; mLM Clint (μl/min/mg) refers to the clearance rate of compounds in mouse liver microsomes having a unit of μl/min/mg; HLM t1/2 (min) refers to the half-life of the compound in human liver microsomes having a unit of minutes; mLM t1/2 (min) refers to the half-life of the compound in mouse liver microsomes having a unit of minutes. TDI means that the mechanism inhibition test of compounds on CYP enzyme evaluates whether the compound has time-dependent inhibition of the enzyme.
# BRD4 (I) = BRD4 (I) (Homo sapiens (Human), UniProt O60885); experiment: Fluorescence anisotropy (FA) binding test on BRD4 (I); conditions: BRD4 (I) 10 nM, fluorescent (+)-JQ1 substrate 5 nM, read-out: BRD4 (1) IC50
# Description: The binding activity of the compound to BRD4 (I) was tested using a fluorescence anisotropy (FA) method. The principle of FA test is to calculate and analyze the fluorescence polarization values in the horizontal and vertical directions by detecting the change of molecular weight before and after the interaction of fluorescein-labeled small molecules with other molecules. If the equilibrium of the binding between the fluorescently labeled small molecule and macromolecule is established, it will move slowly when excited, and the measured fluorescence polarization value will increase. If the binding between the fluorescently labeled small molecule and the macromolecule is replaced by another ligand, its rotation or flipping speed in the free state will be faster, and the emitted light will be depolarized relative to the plane of the excitation light, and the measured polarized light value will decrease to calculate the fluorescence anisotropy of the sample.
# Expression and purification of the BRD4(I) recognition domain: colonies of newly transformed plasmid DNA from E. coli BL21(DE3)-condon plus-RIL cells were cultivated in 50 mL of Terrific Broth medium containing 50 μg/mL kanamycin and 34 μg/mL chloramphenicol at 37° C. overnight (starting culture). The starting culture was then diluted 100-fold in 1 L of fresh TB medium and the cells were grown at 37° C. to an optical density of about 0.8 at OD600 and then the temperature was lowered to 16° C. When the system was equilibrated at 16° C., the optical density at OD600 was approximately 1.2, and protein expression was induced with 0.2 mmol of isopropyl-β-D-thiogalactopyranoside (IPTG) overnight at 16° C. Bacteria were harvested by centrifugation (4000×g, 20 minutes, 4° C.) and stored as a pellet at −80° C. The cells expressing His 6-tagged protein was resuspend in lysis buffer [50 mmol 4-hydroxyethylpiperazineethanesulfonic acid (HEPES), 25° C., pH 7.5, 500 mmol NaCl, 10 mmol imidazole, 5% glycerol and freshly added 0.5 mmol of tris(2-carboxyethyl)phosphine hydrochloride (TCEP) and 1 mmol of phenylmethanesulfonyl fluoride (PMSF)] and lysed at 4° C. using JN 3000PLUS high pressure homogenizer (JNBIO-Guangzhou, China). The lysate was clarified by centrifugation (12,000×g for 1 hour at 4° C.) and applied to a nickel-nitriloacetate agarose column. The column was washed once with 50 mL of wash buffer containing 30 mmol of imidazole. The protein was eluted using imidazole in an elution buffer in a stepwise elution (100-250 mmol imidazole in 50 mmol HEPES, 25° C., pH 7.5, 500 mmol NaCl, 5% glycerol). All fractions were collected and monitored by SDS-polyacrylamide gel electrophoresis (Bio-Rad Criterion TM Precast Gels, 4-12% Bis-Tris, 1.0 mm, from Bio-Rad, CA). After 1 mmol of dithiothreitol (DTT) was added, the eluted proteins were treated with tobacco […] virus (TEV) protease overnight at 4° C. to remove the His6 tag. The protein was concentrated and further purified by size exclusion chromatography on a Superdex 75 16/60 HiLoad gel filtration column. The samples were monitored by SDS-polyacrylamide gel electrophoresis and concentrated to 8-10 mg/mL with gel filtration buffer, 10 mmol Hepes pH 7.5, 500 mM NaCl, 1 mmol DTT, and used for protein binding assays and crystallization.
# The fluorogenic substrate was (+)-JQ1 linked to a fluorescent molecule and the working concentration was 5 nM. BRD4 (I) protein had 10 nM of working concentration and the total reaction system was 40 μL. The buffer was 50 mM 4-hydroxyethylpiperazineethanesulfonic acid (HEPES) pH 7.4, 150 mM NaCl, 0.5 mM 3[(3-cholamidopropyl)dimethylammonio]propanesulfonate (CHAPS). […] The final concentration of DMSO was chosen to be 0.2%, taking into account the solubility of the compound and the effect of DMSO on the assay. All measurements were made under these conditions. […]
# 3A4, sequence (P08684 whole entry): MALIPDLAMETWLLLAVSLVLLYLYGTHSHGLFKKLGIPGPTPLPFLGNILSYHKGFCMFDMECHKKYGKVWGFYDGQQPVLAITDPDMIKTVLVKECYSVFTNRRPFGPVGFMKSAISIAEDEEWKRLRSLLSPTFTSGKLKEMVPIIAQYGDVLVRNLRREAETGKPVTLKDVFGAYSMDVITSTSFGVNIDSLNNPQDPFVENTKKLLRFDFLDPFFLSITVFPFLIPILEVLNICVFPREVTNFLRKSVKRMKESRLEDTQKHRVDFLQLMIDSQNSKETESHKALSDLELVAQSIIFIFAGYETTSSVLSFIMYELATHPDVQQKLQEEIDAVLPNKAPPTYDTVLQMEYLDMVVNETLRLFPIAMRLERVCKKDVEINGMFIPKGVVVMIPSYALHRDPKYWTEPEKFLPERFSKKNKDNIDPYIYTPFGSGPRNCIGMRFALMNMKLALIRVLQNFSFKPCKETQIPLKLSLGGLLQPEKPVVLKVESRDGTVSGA
Structure (SMILES),MLM t1/2 [1] [min],mLM Clint [1] [µL/min/mg],"Direct inhibition rate (%) 3A4, first value (3A4; first of two values a/b (two 3A4 probes midazolam, testosterone; assignment not given)) [%]","Direct inhibition rate (%) 3A4, second value (3A4) [%]",HLM Clint [2] [µL/min/mg],HLM t1/2 [2] [min],IC50 (BRD4 (I)) [nM],half-life at 1 μM ([1]; read-out: half-lives in mouse liver microsomes) [min],microsomal CLint at 1 μM ([1]; read-out: mLM Clint) [µL/min/mg],microsomal CLint at 1 μM ([2]; read-out: HLM Clint) [µL/min/mg],half-life at 1 μM ([2]; read-out: HLM t1/2) [min]
Cc1ccc(-n2nc(C(=O)N3CCN(C)CC3)nc2-c2ccc3c(c2)N(C2CCCC2)[C@H](C)C(=O)N3C)cc1 [Example 6],41,34,22,31,61,23,6.5,–,–,–,–
Cc1ccc(-n2nc(C(=O)N3C[C@@H](C)N[C@@H](C)C3)nc2-c2ccc3c(c2)N(C2CCCC2)[C@H](C)C(=O)N3C)cc1 [Example 12],–,–,–,28,–,–,4.9,193,7,52,27

# From patent publication US11078188B2, “Dihydroquinoxaline bromodomain recognition protein inhibitor, preparation method and use thereof” (SHANGHAI INSTITUTE OF MATERIA MEDICA, CHINESE ACADEMY OF …, priority 2017, dated 2021)
